Consider 16 molecules from patent US8304539B2, “Fused heteroaryl modulators of glucocorticoid receptor, AP-1, and/or NF-κB activity and use thereof” (Bristol-Myers Squibb Company, priority 2008, dated 2012).

The assay deals with T1, human full-length glucocorticoid receptor (Homo sapiens, UniProt P04150).
T1 construct: recombinantly expressed human full-length glucocorticoid receptor; purchased PanVera Co., Madison, Wis; P2816
T1 sequence (P04150 1-777): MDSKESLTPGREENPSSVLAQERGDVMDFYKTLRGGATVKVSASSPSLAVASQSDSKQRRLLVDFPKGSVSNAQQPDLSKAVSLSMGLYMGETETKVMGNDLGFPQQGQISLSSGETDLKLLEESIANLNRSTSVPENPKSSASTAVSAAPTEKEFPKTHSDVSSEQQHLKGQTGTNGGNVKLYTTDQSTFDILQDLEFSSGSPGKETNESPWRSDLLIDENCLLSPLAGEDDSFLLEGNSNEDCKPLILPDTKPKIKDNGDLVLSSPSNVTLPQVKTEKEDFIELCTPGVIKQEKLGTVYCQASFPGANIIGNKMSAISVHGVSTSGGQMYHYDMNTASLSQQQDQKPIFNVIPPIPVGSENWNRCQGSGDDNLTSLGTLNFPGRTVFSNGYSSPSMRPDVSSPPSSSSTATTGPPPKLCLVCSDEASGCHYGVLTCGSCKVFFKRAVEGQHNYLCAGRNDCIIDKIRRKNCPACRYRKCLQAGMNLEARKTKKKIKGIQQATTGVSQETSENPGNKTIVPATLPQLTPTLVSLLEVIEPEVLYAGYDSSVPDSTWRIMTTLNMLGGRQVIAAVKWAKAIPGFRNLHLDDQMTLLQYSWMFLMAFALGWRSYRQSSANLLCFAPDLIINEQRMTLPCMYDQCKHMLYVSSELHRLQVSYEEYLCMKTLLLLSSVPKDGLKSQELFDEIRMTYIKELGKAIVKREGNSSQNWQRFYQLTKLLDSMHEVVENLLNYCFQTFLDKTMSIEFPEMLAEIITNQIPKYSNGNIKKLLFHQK
Nature of the assay: GR binding Assay II (fluorescence polarization competitor assay). The settings on record: given where AP-1 EC50 is greater than 1 uM and/or maximal inhibition is less than 20%; read-out: GR (Ki, nM) (measured in GR binding Assay II). The protocol: Glucocorticoid Receptor Binding Assay (II)
In order to measure the binding of compounds on the glucocorticoid receptor a commercially available kit was used (Glucocorticoid receptor competitor assay kit, PanVera Co., Madison, Wis., P2816). Briefly, a cell lysate containing recombinantly expressed human full-length glucocorticoid receptor was mixed with a fluorescently labeled glucocorticoid (1 nM Fluormone GS1) in the presence or absence of test compound. After one hour at room temperature, the fluorescence polarization (FP) of the samples were measured. The FP of a mixture of receptor, fluorescent probe (i.e. Fluormone GS1) and 1 mM dexamethasone represented background fluorescence or 100% inhibition, whereas, the FP of the mixture without dexamethasone was taken to be 100% binding. The percentage inhibition of test molecules were then compared to the sample with 1 mM dexamethasone and expressed as % relative binding activity with dexamethasone being 100% and no inhibition is 0%. Test molecules were analyzed in the concentration range from 2.4 nM to 40 microMolar.
(In general: In fluorescence polarisation assays a small probe gives low polarisation when free and higher when bound to something large.)

As to `CN(C)C(=O)c1ccc(-c2ccc3c(n2)Oc2nc(N4CCOCC4)ccc2C3C(C)(C)C(=O)Nc2nncs2)cc1` (stereo not shown) [Example 69, 4-(5-(1,1-dimethyl-2-oxo-2-(1,3,4-thiadiazol-2-ylamino)ethyl)-8-(4-morpholinyl)-5H-pyrido[3′,2′:5,6]pyrano[2,3-b]pyridin-2-yl)-N,N-dimethylbenzamide], the Ki (in general, a measure of affinity in units of concentration, obtained from inhibition or displacement) is 68.9 nM.
Turning to `CN(C)C(=O)c1ccc(-c2ccc3c(n2)Oc2nc(N4CCCC4)ccc2C3C(C)(C)C(=O)Nc2nncs2)cc1` (stereo not shown) [Example 70, 4-(5-(1,1-dimethyl-2-oxo-2-(1,3,4-thiadiazol-2-ylamino)ethyl)-8-(1-pyrrolidinyl)-5H-pyrido[3′,2′:5,6]pyrano[2,3-b]pyridin-2-yl)-N,N-dimethylbenzamide], the Ki amounted to 385 nM.
The same measure for `Cc1ccc2c(n1)Oc1nc(-c3ccc(C(=O)N(C)C)cc3)ccc1[C@H]2C(C)(C)C(=O)Nc1nnc(C(=O)NC2CC2)s1` [Example 43]: 11.6 nM; for `Cc1ccc2c(n1)Oc1nc(-c3ccc(CC(C)C)cc3)ccc1[C@H]2C(C)(C)C(=O)Nc1nncs1` [Example 77]: 2.53 nM.
As to `Cc1ccc2c(n1)Oc1nc(-c3ccc(C(=O)N(C)C)cc3)ccc1[C@H]2C(C)(C)C(=O)Nc1ncc(C(=O)N2CCOCC2)s1` [Example 52], the Ki was determined as 411 nM.
The same measure for `CNC(=O)c1cnc(NC(=O)C(C)(C)[C@H]2c3ccc(C)nc3Oc3nc(-c4ccc(C(=O)N(C)C)cc4)ccc32)s1` [Example 51]: 423 nM.
The figure for `C=Cc1ccc2c(n1)Oc1nc(-c3ccc(C(=O)N(C)C)cc3)ccc1C2C(C)(C)C(=O)Nc1nncs1` (stereo not shown) [Example 64, 4-(5-(1,1-dimethyl-2-oxo-2-(1,3,4-thiadiazol-2-ylamino)ethyl)-8-vinyl-5H-pyrido[3′,2′:5,6]pyrano[2,3-b]pyridin-2-yl)-N,N-dimethylbenzamide] is 80.8 nM; for `CCN(C)C(=O)c1ccc(-c2ccc3c(n2)Oc2ncccc2C3C(C)(C)C(=O)Nc2nnc(C(=O)NC3CC3)s2)cc1` (stereo not shown) [Example 7] it is 65.6 nM; for `Cc1ccc2c(n1)Oc1nc(-c3ccc(C(=O)N4CCC[C@@H]4C(N)=O)cc3)ccc1[C@H]2C(C)(C)C(=O)Nc1nnc(C)s1` [Example 91] it is 122 nM.
The figure for `Cc1ccc2c(n1)Oc1nc(-c3ccc(OC4CCCC4)cc3)ccc1[C@H]2C(C)(C)C(=O)Nc1nncs1` [Example 75] is 13.5 nM; for `CN(C)C(=O)c1ccc(-c2ccc3c(n2)Oc2nc(-c4ccccc4)ccc2C3C(C)(C)C(=O)Nc2nncs2)cc1` (stereo not shown) [Example 65, 4-(5-(1,1-dimethyl-2-oxo-2-(1,3,4-thiadiazol-2-ylamino)ethyl)-8-phenyl-5H-pyrido[3′,2′:5,6]pyrano[2,3-b]pyridin-2-yl)-N,N-dimethylbenzamide] it is 657 nM.
Take `CCN(C)C(=O)c1ccc(-c2ccc3c(n2)Oc2nc(C)ccc2[C@@H]3C(C)(C)C(=O)Nc2nnc(C(=O)N(C)C)s2)cc1` [Example 47]: the Ki worked out at 149 nM.
The figure for `CC(C)(C(=O)Nc1nncs1)C1c2ccncc2Oc2nc(-c3ccc(C(=O)N4CCOCC4)cc3)ccc21` (stereo not shown) [Example 2, 2-methyl-2-(2-(4-(4-morpholinylcarbonyl)phenyl)-5H-pyrido[4′,3′:5,6]pyrano[2,3-b]pyridin-5-yl)-N-1,3,4-thiadiazol-2-ylpropanamide] is 199 nM; for `Cc1ccc2c(n1)Oc1nc(-c3ccc(S(C)(=O)=O)cc3)ccc1[C@H]2C(C)(C)C(=O)Nc1nncs1` [Example 37, 2-methyl-2-((5S)-2-methyl-8-(4-(methylsulfonyl)phenyl)-5H-pyrido[3′,2′:5,6]pyrano[2,3-b]pyridin-5-yl)-N-1,3,4-thiadiazol-2-ylpropanamide] it is 78.9 nM.
The figure for `Cc1ccc2c(n1)Oc1nc(-c3ccc(C(=O)N(C)C)cc3)ccc1[C@H]2C(C)(C)C(=O)Nc1ncc(C(=O)NC2CC2)s1` [Example 53] is 106 nM.
With `Cc1ccc2c(n1)Oc1nc(-c3ccc(S(=O)(=O)C(C)C)cc3)ccc1[C@H]2C(C)(C)C(=O)Nc1nncs1` [Example 83], the inhibition constant (Ki) is 25.2 nM.
